Laboratory results: patent US11897862B2 (Gilead Sciences, Inc., priority 2022, dated 2024)

Tests used:
Format in all cases: cell-based
IKZF1 = biological target: T1, IKZF1 (Homo sapiens, UniProt Q13422+Q96SW2); assay: HEK293 HiBiT in vitro degradation of IKZF1; conditions: for DC50 / IKZF1 Dmax: HEK293 HiBiT; for DC50: 18-24 hr incubation, normalized to DMSO control, read-out: IKZF1 EC50; for IKZF1 Dmax / Dmax: maximum degradation at the highest concentration tested; for Dmax: HEK293, HEK293 HiBiT
T1 construct: expressed in transfected cells
Method in brief: (§1)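 Flp-In T-REx HEK293 pools stably expressing C-terminal HiBiT-tagged IKZF1, IKZF2 or SALL4 (single-copy, Tet-On), induced overnight with […] doxycycline. Cells exposed to serially diluted compounds for 18-24 hr at 37° C. Nano-Glo lytic luminescence gave EC50 and Dmax.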

IKZF2 [1] = biological target: T2, IKZF2 (Homo sapiens, UniProt Q96SW2+Q9UKS7); assay: Human whole blood IKZF2 degradation (flow cytometry, CD4/CD25/Foxp3+ Treg cells); set-up: endogenous in cells; conditions: 24 hrs incubation, IKZF2 MFI in CD4/CD25/Foxp3+ Treg cells, flow cytometry; for DC50: read-out: IKZF2 EC50
Description: In vitro IKZF2 potency was assessed in human whole blood using a fluorescence activated cell sorting assay. 50 μL of freshly collected blood from healthy human volunteers was incubated with Immunocult CD3/CD28 activator (Stemcell Technologies) and solution of testing compounds (serially-diluted) for 24 hrs hours at 37° C. in 384 well plates. The treated red blood cells were removed by adding lysis buffer (BD cat #558049) then the cells were fixed, permeabilized, and stained with anti-CD4 (BD cat #564419), anti-Foxp3 (Invitrogen cat #48-4777-42), anti-IKZF1 (Cell Signaling Tech. cat #33462S), and anti-IKZF2(Cell Signaling Tech. cat #65432S) antibodies. The median fluorescent intensity (MFI) of IKZF2 signal from CD4/CD25/Foxp3+ Treg cells and MFI of IKZF1 signal from CD4+ T cells were quantified in the same samples by flow cytometry using an Attune instrument. EC50 and Dmax of each compound was determined by plotting the MFI and DMSO treated wells were used as control. Asterisks (*) indicate examples for which data represents an average of n≥3 repeat experiments.
Target sequence in this assay (Q9UKS7 whole entry): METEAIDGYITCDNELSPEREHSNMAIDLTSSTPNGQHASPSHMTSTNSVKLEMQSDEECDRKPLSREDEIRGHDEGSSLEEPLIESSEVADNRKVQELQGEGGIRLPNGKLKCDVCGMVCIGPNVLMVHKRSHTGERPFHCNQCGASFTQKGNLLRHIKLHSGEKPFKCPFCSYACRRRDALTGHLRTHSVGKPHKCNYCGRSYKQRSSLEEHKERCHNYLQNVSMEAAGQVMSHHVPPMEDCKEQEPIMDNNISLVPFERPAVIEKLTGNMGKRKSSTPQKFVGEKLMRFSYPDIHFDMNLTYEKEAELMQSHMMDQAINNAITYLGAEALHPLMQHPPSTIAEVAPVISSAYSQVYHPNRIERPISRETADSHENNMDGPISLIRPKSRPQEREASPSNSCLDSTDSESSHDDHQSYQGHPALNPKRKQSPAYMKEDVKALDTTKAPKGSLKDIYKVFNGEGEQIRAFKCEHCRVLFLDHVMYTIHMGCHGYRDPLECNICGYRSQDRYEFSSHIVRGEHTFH
Target sequence in this assay (Q96SW2 whole entry): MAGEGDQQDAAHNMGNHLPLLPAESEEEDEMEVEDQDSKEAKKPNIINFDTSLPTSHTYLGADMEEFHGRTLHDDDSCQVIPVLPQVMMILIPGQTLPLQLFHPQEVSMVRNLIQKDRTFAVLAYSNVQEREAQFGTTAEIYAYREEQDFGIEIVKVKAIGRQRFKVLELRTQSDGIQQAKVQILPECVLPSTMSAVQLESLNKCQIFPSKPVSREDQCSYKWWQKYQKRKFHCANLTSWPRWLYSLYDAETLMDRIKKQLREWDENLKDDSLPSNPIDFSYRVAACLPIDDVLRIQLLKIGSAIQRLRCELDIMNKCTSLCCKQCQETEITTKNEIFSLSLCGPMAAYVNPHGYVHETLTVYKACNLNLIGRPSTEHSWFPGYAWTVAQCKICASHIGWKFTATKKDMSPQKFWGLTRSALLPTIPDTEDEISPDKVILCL
Target sequence in this assay (Q16531 whole entry partner): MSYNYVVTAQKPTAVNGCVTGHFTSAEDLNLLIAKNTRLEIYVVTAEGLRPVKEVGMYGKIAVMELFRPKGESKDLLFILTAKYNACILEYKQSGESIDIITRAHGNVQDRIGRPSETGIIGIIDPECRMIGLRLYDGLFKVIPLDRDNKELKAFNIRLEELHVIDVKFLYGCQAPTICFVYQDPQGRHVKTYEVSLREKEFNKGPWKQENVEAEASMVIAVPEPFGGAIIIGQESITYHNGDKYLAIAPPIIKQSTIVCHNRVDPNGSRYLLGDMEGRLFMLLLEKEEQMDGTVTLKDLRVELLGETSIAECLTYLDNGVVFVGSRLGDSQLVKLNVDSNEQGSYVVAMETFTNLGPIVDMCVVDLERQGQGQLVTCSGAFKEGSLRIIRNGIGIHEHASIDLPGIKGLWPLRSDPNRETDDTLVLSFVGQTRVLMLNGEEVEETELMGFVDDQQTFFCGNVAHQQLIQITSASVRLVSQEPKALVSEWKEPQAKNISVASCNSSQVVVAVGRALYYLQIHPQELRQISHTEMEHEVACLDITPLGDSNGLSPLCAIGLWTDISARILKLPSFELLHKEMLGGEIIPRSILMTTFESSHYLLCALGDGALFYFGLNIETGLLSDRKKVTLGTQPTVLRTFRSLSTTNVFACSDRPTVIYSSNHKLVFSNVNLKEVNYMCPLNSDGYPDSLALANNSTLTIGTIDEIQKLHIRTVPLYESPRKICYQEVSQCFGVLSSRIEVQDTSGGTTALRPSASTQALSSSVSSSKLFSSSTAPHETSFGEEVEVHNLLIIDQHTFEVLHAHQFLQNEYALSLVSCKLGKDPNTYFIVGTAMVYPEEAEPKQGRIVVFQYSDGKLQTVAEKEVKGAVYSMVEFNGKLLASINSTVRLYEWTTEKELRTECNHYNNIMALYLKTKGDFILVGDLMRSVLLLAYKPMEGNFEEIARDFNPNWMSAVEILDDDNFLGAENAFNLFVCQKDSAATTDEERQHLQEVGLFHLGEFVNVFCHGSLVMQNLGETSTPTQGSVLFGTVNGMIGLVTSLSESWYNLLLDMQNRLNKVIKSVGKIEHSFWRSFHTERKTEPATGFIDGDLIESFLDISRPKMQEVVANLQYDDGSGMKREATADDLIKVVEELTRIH

IKZF2 [2] = biological target: T2, IKZF2; assay: HEK293 HiBiT in vitro degradation of IKZF2; set-up: expressed in transfected cells; conditions: for DC50 / IKZF2 Dmax: HEK293 HiBiT; for DC50: 18-24 hr incubation, normalized to DMSO control, read-out: IKZF2 EC50; for IKZF2 Dmax / Dmax: maximum degradation at the highest concentration tested; for Dmax: HEK293, HEK293 HiBiT
Method in brief: as §1
Target sequence in this assay (Q9UKS7 1-500 isoform Q9UKS7-2): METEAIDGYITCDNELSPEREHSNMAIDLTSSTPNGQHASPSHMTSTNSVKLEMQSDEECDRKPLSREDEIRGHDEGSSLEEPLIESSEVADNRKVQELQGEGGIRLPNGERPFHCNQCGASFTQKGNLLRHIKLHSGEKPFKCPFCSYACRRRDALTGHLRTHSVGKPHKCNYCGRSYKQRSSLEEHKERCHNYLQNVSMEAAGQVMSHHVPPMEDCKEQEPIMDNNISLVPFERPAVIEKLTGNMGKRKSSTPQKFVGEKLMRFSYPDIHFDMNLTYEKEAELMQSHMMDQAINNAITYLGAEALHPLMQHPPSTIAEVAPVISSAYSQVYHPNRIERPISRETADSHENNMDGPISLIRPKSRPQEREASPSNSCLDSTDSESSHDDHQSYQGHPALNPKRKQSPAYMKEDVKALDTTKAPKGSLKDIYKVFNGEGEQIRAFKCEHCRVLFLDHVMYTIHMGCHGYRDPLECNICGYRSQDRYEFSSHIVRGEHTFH
Target sequence in this assay (Q96SW2 whole entry): as the sequence (Q96SW2 whole entry) above
Target sequence in this assay (Q16531 whole entry partner): as the sequence (Q16531 whole entry partner) above

T1 sequence (Q13422 whole entry): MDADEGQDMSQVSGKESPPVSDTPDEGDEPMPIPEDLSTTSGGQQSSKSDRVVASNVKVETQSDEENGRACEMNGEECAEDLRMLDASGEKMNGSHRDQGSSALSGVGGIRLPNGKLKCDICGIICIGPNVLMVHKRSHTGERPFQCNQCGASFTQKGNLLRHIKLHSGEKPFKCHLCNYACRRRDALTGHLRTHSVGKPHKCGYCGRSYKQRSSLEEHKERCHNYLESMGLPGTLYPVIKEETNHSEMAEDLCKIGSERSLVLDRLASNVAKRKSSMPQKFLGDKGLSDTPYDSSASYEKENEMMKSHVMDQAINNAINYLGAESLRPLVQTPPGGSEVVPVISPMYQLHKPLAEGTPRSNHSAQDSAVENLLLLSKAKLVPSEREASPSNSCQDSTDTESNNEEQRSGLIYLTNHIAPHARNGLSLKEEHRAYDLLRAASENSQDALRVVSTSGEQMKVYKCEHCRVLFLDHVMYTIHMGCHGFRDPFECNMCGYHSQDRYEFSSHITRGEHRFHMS
T1 sequence (Q96SW2 whole entry): as the sequence (Q96SW2 whole entry) above
T1 sequence (Q16531 whole entry partner): as the sequence (Q16531 whole entry partner) above

## O=C1CCC(N2Cc3cc(C[C@H]4CCCC[C@@H]4NC4CCC(C(F)(F)F)CC4)ccc3C2=O)C(=O)N1 (single isomer, unassigned) [Example 122]
IKZF1
  DC50: 57 nM
  IKZF1 Dmax: 45%
IKZF2 [1]
  Dmax: 97%
  DC50: 2 nM
IKZF2 [2]
  DC50: 2 nM
  IKZF2 Dmax: 96%

## CC(N[C@H]1CCCC[C@@H]1Cc1ccc2c(c1)CN(C1CCC(=O)NC1=O)C2=O)C1CC(F)(F)C1 (single isomer, unassigned) [Example 136]
IKZF1
  DC50: > 1000 nM
IKZF2 [1]
  Dmax: 97%
  DC50: 6 nM
IKZF2 [2]
  Dmax: 97%
  DC50: 4 nM

## CC(N[C@H]1CCCC[C@@H]1Cc1ccc2c(c1)CN(C1CCC(=O)NC1=O)C2=O)C1CC(F)(F)C1 (single isomer, unassigned) [Example 137]
IKZF1
  Dmax: 34%
  DC50: 54 nM
IKZF2 [1]
  IKZF2 Dmax: 99%
  DC50: 2 nM
IKZF2 [2]
  DC50: 1 nM
  IKZF2 Dmax: 97%

## O=C1CCC(N2Cc3cc(C[C@H]4CCCC[C@@H]4NC4CCC(OC(F)(F)F)CC4)ccc3C2=O)C(=O)N1 (single isomer, unassigned) [Example 145]
IKZF1
  Dmax: 44%
  DC50: 55 nM
IKZF2 [1]
  Dmax: 100%
  DC50: 4 nM
IKZF2 [2]
  Dmax: 96%
  DC50: 2 nM

## CC(N[C@H]1CCCO[C@@H]1Cc1ccc2c(c1F)CN(C1CCC(=O)NC1=O)C2=O)C1CCC1 (single isomer, unassigned) [Example 247]
IKZF1
  DC50: > 1000 nM
IKZF2 [1]
  Dmax: 95%
  DC50: 4 nM
IKZF2 [2]
  Dmax: 97%
  DC50: 5 nM

## CC(CC(F)(F)F)N[C@H]1CCCC[C@@H]1Cc1ccc2c(c1)CN(C1CCC(=O)NC1=O)C2=O (single isomer, unassigned) [Example 250]
IKZF1
  Dmax: 30%
  DC50: 117 nM
IKZF2 [1]
  Dmax: 100%
  DC50: 4 nM
IKZF2 [2]
  DC50: 2 nM
  IKZF2 Dmax: 97%

## COCC1CCC(N[C@H]2CCCC[C@@H]2Cc2ccc3c(c2)CN(C2CCC(=O)NC2=O)C3=O)CC1 (single isomer, unassigned) [Example 251]
IKZF1
  Dmax: 35%
  DC50: 213 nM
IKZF2 [1]
  Dmax: 98%
  DC50: 2 nM
IKZF2 [2]
  Dmax: 98%
  DC50: 1 nM

## COCC1CCC(N[C@H]2CCCC[C@@H]2Cc2ccc3c(c2)CN(C2CCC(=O)NC2=O)C3=O)CC1 (single isomer, unassigned) [Example 252]
IKZF1
  DC50: 105 nM
  IKZF1 Dmax: 31%
IKZF2 [1]
  IKZF2 Dmax: 97%
  DC50: 1 nM
IKZF2 [2]
  DC50: 3 nM
  IKZF2 Dmax: 98%

## CC(N[C@H]1CCCC[C@@H]1Cc1ccc2c(c1)CN(C1CCC(=O)NC1=O)C2=O)C1(C#N)CC1 (single isomer, unassigned) [Example 256]
IKZF1
  DC50: > 1000 nM
IKZF2 [1]
  Dmax: 95%
  DC50: 10 nM

## O=C1CCC(N2Cc3cc(C[C@H]4CCCC[C@@H]4NC4CC5CC5C4)ccc3C2=O)C(=O)N1 (single isomer, unassigned) [Example 266]
IKZF1
  Dmax: 32%
  DC50: 55 nM
IKZF2 [1]
  Dmax: 98%
  DC50: 6 nM
IKZF2 [2]
  Dmax: 97%
  DC50: 4 nM

## N#CC1CCC(N[C@H]2CCCC[C@@H]2Cc2ccc3c(c2)CN(C2CCC(=O)NC2=O)C3=O)CC1 (single isomer, unassigned) [Example 267]
IKZF1
  Dmax: 44%
  DC50: 109 nM
IKZF2 [1]
  Dmax: 97%
  DC50: 2 nM
IKZF2 [2]
  Dmax: 98%
  DC50: 4 nM

## O=C1CCC(N2Cc3cc(C[C@H]4CCCC[C@@H]4NC4CCC5(CC4)CC5(F)F)ccc3C2=O)C(=O)N1 (single isomer, unassigned) [Example 272]
IKZF1
  DC50: 40 nM
  IKZF1 Dmax: 54%
IKZF2 [1]
  Dmax: 97%
  DC50: 2 nM
IKZF2 [2]
  DC50: 1 nM
  IKZF2 Dmax: 98%

## COC1CCC(N[C@H]2CCCC[C@@H]2Cc2ccc3c(c2)CN(C2CCC(=O)NC2=O)C3=O)CC1 (single isomer, unassigned) [Example 277]
IKZF1
  Dmax: 37%
  DC50: 114 nM
IKZF2 [1]
  Dmax: 95%
  DC50: 2 nM
IKZF2 [2]
  Dmax: 98%
  DC50: 3 nM

## O=C1CCC(N2Cc3cc(C[C@H]4CCCC[C@@H]4NC4CCC5(CC5)C4)ccc3C2=O)C(=O)N1 (single isomer, unassigned) [Example 281]
IKZF1
  Dmax: 30%
  DC50: 43 nM
IKZF2 [1]
  Dmax: 98%
  DC50: 5 nM
IKZF2 [2]
  Dmax: 96%
  DC50: 2 nM

## CC(N[C@H]1CCCC[C@@H]1Cc1ccc2c(c1F)CN(C1CCC(=O)NC1=O)C2=O)C1CCOCC1 (single isomer, unassigned) [Example 288]
IKZF1
  DC50: 399 nM
  IKZF1 Dmax: 32%
IKZF2 [1]
  IKZF2 Dmax: 92%
  DC50: 5 nM
IKZF2 [2]
  DC50: 6 nM
  IKZF2 Dmax: 97%

## CCC(C)N[C@H]1CCCC[C@@H]1Cc1ccc2c(c1)CN(C1CCC(=O)NC1=O)C2=O (single isomer, unassigned) [Example 299]
IKZF1
  DC50: > 1000 nM
IKZF2 [1]
  Dmax: 96%
  DC50: 2 nM
IKZF2 [2]
  Dmax: 98%
  DC50: 2 nM

## CC(C)N[C@H]1CCCC[C@@H]1Cc1ccc2c(c1)CN(C1CCC(=O)NC1=O)C2=O (stereo partly drawn) [Example 7, 3-(5-(((1R,2S)-2-(isopropylamino)cyclohexyl)methyl)-1-oxoisoindolin-2-yl)piperidine-2,6-dione]
IKZF1
  Dmax: 36%
  DC50: 462 nM
IKZF2 [1]
  Dmax: 98%
  DC50: 2 nM
IKZF2 [2]
  Dmax: 99%
  DC50: 4 nM

## CCC(CC)N[C@H]1CCCC[C@@H]1Cc1ccc2c(c1)CN(C1CCC(=O)NC1=O)C2=O (stereo partly drawn) [Example 23, 3-(1-oxo-5-(((1R,2S)-2-(pentan-3-ylamino)cyclohexyl)methyl)isoindolin-2-yl)piperidine-2,6-dione]
IKZF1
  Dmax: 14%
  DC50: 374 nM
IKZF2 [1]
  Dmax: 98%
  DC50: 6 nM
IKZF2 [2]
  Dmax: 95%
  DC50: 6 nM

## O=C1CCC(N2Cc3cc(C[C@H]4CCCC[C@@H]4NCC4CC(F)(F)C4)ccc3C2=O)C(=O)N1 (stereo partly drawn) [Example 24, 3-(5-(((1R,2S)-2-(((3,3-difluorocyclobutyl)methyl)amino)cyclohexyl)methyl)-1-oxoisoindolin-2-yl)piperidine-2,6-dione]
IKZF1
  Dmax: 25%
  DC50: 345 nM
IKZF2 [1]
  Dmax: 89%
  DC50: 8 nM
IKZF2 [2]
  Dmax: 91%
  DC50: 10 nM

## O=C1CCC(N2Cc3cc(C[C@H]4CCCC[C@@H]4NC4CCC5(CC4)CC5)ccc3C2=O)C(=O)N1 (stereo partly drawn) [Example 28, 3-(1-oxo-5-(((1R,2S)-2-(spiro[2.5]octan-6-ylamino)cyclohexyl)methyl)isoindolin-2-yl)piperidine-2,6-dione]
IKZF1
  Dmax: 56%
  DC50: 327 nM
IKZF2 [1]
  Dmax: 99%
  DC50: 3 nM
IKZF2 [2]
  Dmax: 97%
  DC50: 2 nM

## O=C1CCC(N2Cc3cc(C[C@H]4CCCC[C@@H]4NC4CCCC4)ccc3C2=O)C(=O)N1 (stereo partly drawn) [Example 52, 3-(5-(((1R,2S)-2-(cyclopentylamino)cyclohexyl)methyl)-1-oxoisoindolin-2-yl)piperidine-2,6-dione]
IKZF1
  DC50: > 1000 nM
IKZF2 [1]
  Dmax: 95%
  DC50: 5 nM
IKZF2 [2]
  Dmax: 96%
  DC50: 6 nM

## CC(C)(C)CCN[C@H]1CCCC[C@@H]1Cc1ccc2c(c1)CN(C1CCC(=O)NC1=O)C2=O (stereo partly drawn) [Example 56, 3-(5-(((1R,2S)-2-((3,3-dimethylbutyl)amino)cyclohexyl)methyl)-1-oxoisoindolin-2-yl)piperidine-2,6-dione]
IKZF1
  Dmax: 44%
  DC50: 68 nM
IKZF2 [1]
  Dmax: 97%
  DC50: 8 nM
IKZF2 [2]
  Dmax: 96%
  DC50: 14 nM

## O=C1CCC(N2Cc3cc(C[C@H]4CCCC[C@@H]4NCC45CC(C4)C5)ccc3C2=O)C(=O)N1 (stereo partly shown) [Example 63]
IKZF1
  DC50: > 1000 nM
IKZF2 [1]
  Dmax: 91%
  DC50: 19 nM
IKZF2 [2]
  Dmax: 89%
  DC50: 19 nM

## O=C1CCC(N2Cc3cc(C[C@H]4CCCC[C@@H]4NC4CCOCC4)ccc3C2=O)C(=O)N1 (stereo partly shown) [Example 74]
IKZF1
  Dmax: 55%
  DC50: 226 nM
IKZF2 [1]
  Dmax: 93%
  DC50: 3 nM
IKZF2 [2]
  Dmax: 96%
  DC50: 4 nM

## O=C1CCC(N2Cc3cc(C[C@H]4CCCC[C@@H]4NC4CC5(CC5)C4)ccc3C2=O)C(=O)N1 (stereo partly drawn) [Example 79, 3-(1-oxo-5-(((1R,2S)-2-(spiro[2.3]hexan-5-ylamino)cyclohexyl)methyl)isoindolin-2-yl)piperidine-2,6-dione]
IKZF1
  Dmax: 33%
  DC50: 98 nM
IKZF2 [1]
  Dmax: 93%
  DC50: 5 nM
IKZF2 [2]
  Dmax: 94%
  DC50: 5 nM

## O=C1CCC(N2Cc3c(ccc(O[C@H]4CCCC[C@@H]4NC4CCC(F)(F)CC4)c3F)C2=O)C(=O)N1 (stereo partly shown) [Reference Compound B-1, reference compound]
IKZF1
  DC50: > 1000 nM
IKZF2 [2]
  Dmax: 97%
  DC50: 6 nM
